Test results as given in patent US20060281673A1, “Novel peptide inhibitor of hiv fusion that disrupts the internal trimeric coiled-coil of gp41” (priority 2003, published 2006).
Where “and” joins values, the source holds several entries; their conditions need not be identical. Equal entries are not always repeated. Entries after “also recorded” stand apart in the source; their conditions may differ.

What was measured:
[1] = Circular dichroism, secondary structure; type: physicochemical; conditions: CD at 25° C., program CDNN
Method: (§1) Circular Dichroism—CD spectra of peptides (at a concentration corresponding to 0.7-0.8 A280) were recorded at 25° C. on a JASCO J-720 spectropolarimeter using a 0.05-cm path length cell.

[2] = Sedimentation equilibrium (analytical ultracentrifugation), oligomeric state; type: physicochemical; conditions: 50 mM sodium formate pH 3, 20.0° C.
Source text: […]. J. Biochem. 157:169-180)).

[3] = target: T1, C34 peptide derived from the C-terminal region of gp41 (residues 628-661) (Human immunodeficiency virus type 1 group M subtype B, UniProt P04578); test: Interaction with C34 by analytical ultracentrifugation or CD; type: binding, HIV-1
T1 construct: the C34 peptide comprises residues 628-661 of the C-region of HIV-1 gp41; purchased Commonwealth Biotechnologies (Richmond, Va.); host or cells: solid-phase synthesis
Method: as §1
Sedimentation Equilibrium—Sedimentation equilibrium experiments were conducted at 20.0° C. and three different rotor speeds (16,000, 20,000, and 24,000) on a Beckman Optima XL-A analytical ultracentrifuge. Peptide samples were prepared in 50 mM sodium formate buffer (pH=3) and loaded into the ultracentrifuge cells at nominal loading concentrations of ˜0.2 and 0.7-0.8 A280. Data were analyzed in terms of a single ideal solute to obtain the buoyant molecular mass, M(1−νρ), using the Optima XL-A data analysis software (Beckman). […] J. Biochem. 157:169-180)).

[4] = target: pre-hairpin intermediate of gp41 (Human immunodeficiency virus type 1 group M subtype B, UniProt P04578); parameters: species or system HIV-1
[5] = system: HIV Env-mediated cell fusion; conditions: read-out: fails to inhibit fusion even at concentrations as high as

T1 sequence (P04578 628-661): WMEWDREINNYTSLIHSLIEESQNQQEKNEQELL
Chain of pre-hairpin intermediate of gp41 (P04578 512-856): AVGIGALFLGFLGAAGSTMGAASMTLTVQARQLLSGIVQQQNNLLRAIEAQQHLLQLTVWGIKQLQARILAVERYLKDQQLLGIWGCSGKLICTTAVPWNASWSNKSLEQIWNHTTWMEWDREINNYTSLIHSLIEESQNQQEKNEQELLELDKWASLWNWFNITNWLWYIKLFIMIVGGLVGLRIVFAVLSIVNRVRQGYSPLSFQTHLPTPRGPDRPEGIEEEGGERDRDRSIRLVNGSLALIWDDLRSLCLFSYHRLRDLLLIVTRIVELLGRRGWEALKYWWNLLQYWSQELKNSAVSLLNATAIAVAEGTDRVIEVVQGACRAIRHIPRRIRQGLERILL

Substance | helical content [1] | oligomeric state in solution [2] | interaction with C34 [3] | optimized value of β (heterotrimerization with gp41 relative to Kref^trimer) [4] | IC50 [5]
Ac-SGIDQEQNNLTRLIEAQIHELQLTQWKIKQLLARIL-NH2 [N36^Mut(e,g)] | ~80% | monodisperse, helical trimer | does not interact with C34; also recorded: No evidence of interaction | 2.97 and 5.76 | –
SGIVQQLNNQLRAEEANQHLEQLSVWGSKQNQARRL; peptide derived from N36 with nine substitutions at positions a and d of the helical wheel (SGIVQQLNNQLRAEEANQHLEQLSVWGSKQNQARRL) [N36^Mut(a,d)] | ~20% | monomeric; also recorded: monomer | does not interact with the C34 peptide; also recorded: No evidence of interaction | – | > 100 µM
